Like-named read-outs stand apart in the source and are kept apart here. Starred links: 1 amine or outer side, 2 acyl side, 3 side chain; linkers in the order of their positions; H or OH if unused. Positions of bridges follow the written chain, without caps; N, C: chain ends. Non-standard residues stand in square brackets, D forms with d. Residues, ends and D or L forms follow the SMILES beside them. Cit = NC(=O)NCCC[C@H](N)C(=O)O; d(hCys) = N[C@H](CCS)C(=O)O; Orn = NCCC[C@H](N)C(=O)O; Thz = O=C(O)[C@@H]1CSCN1; X1 = C(CN[*:2])CS[*:1]; Aib = CC(C)(N)C(=O)O; Sar = CNCC(=O)O
Target: T1, human MC4R (Homo sapiens, UniProt P32245)
T1 construct: expressed in transfected cells
T1 sequence (P32245 whole entry): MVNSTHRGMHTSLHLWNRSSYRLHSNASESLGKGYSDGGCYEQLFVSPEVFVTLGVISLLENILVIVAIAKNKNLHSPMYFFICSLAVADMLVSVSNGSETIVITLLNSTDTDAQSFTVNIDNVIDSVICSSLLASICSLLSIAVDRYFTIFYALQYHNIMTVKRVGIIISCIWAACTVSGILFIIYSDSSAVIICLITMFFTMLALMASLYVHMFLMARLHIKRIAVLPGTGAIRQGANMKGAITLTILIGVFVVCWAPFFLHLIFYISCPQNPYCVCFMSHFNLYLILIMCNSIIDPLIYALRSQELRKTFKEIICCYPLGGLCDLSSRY
Assay: Functional cAMP assay (CisBio HTRF) in BHK cells expressing human MC4R
Type: cell-based
Conditions: for MC1R/MC4R cAMP EC50 ratio: MC1R cAMP EC50 divided by MC4R cAMP EC50
Experimental: In order to assess the potency of the compounds on human MC1R and human MC4R cAMP signalling was measured.
cAMP induction was measured by c-AMPdynamic2 assay, HTRF 62AM4PEC system from CisBio for the human MC1R and human MC4R according to the protocol provided by the vendor. BHK cells expressing the human MC1 or MC4 receptor were generated by stable transfection with expression vectors encoding the cDNA of either MC1R or MC4R.
In details; 25 μl compound—or standard solution were added in the respective wells. Compound was reconstituted in buffer (DMEM w/o phenol red, 10 mM
Hepes, lx Glutamine, 0.1% OV-albumin1, 1 mM IBMX) and serially diluted starting at 2 μM, 10-fold seven times. Dilutions were carried out in the same aforementioned buffer to the desired working concentration ranges (2× higher than the final concentration). 25 μl cell solution was then added and allowed to incubate for 30 min while lightly shaking, at 25° C. […] The provided components for the assay were reconstituted according to the CisBio assay protocol “3.1 supplied reagents and preparation procedure” in MilliQ purification system H2O and diluted 1:20 in lysis buffer. 25 μl cAMP-d2 and 25 μl Cryptate conjugate were added to all wells.
Plates were centrifuged at 1500 rpm for 30 sec and incubated for 1 h, lightly shaking, at 25° C. in a hotel stacker. The plates were read on Mithras LB 940 provided by Berthold Technologies The data were analysed by non-linear regression analysis of binding curves, using the Windows™ program GraphPad™ Prism (GraphPad Software, USA).
The latter is used when no full curve can be obtained in the concentration ranges indicated above.

[1] = BHK cells expressing human MC4R, '>' = highest dose used with no response, read-out: MC4R cAMP EC50

Compound | EC50 [1] [nM] | MC1R/MC4R cAMP EC50 ratio | EC50 [nM]
NCCCC[C@@H]1NC(=O)[C@@H]2CSSC[C@H](NC(=O)[C@H](Cc3c[nH]c4ccccc34)NC(=O)[C@H](CCCNC(N)=O)NC(=O)[C@@H](Cc3ccccc3)NC(=O)[C@H](Cc3c[nH]cn3)NC1=O)C(=O)N[C@@H](CCCCN)C(=O)N[C@@H](Cc1c[nH]cn1)C(=O)N[C@H](Cc1ccccc1)C(=O)N[C@@H](CCCNC(N)=O)C(=O)N[C@@H](Cc1c[nH]c3ccccc13)C(=O)N2 [Chem. 55, c[c[Cys-Lys-His-D-Phe-Cit-Trp-Cys]- Lys-His-D-Phe-Cit-Trp]] (cyclo(CKH[dF][Cit]WCKH[dF][Cit]W); disulfide 1-7) | 0.1 | 41 | –
C[C@@H]1NC(=O)[C@@H]2CSSC[C@H](NC(=O)[C@H](Cc3c[nH]c4ccccc34)NC(=O)[C@H](CCCNC(=N)N)N(C)C(=O)[C@@H](Cc3ccccc3)NC(=O)[C@H](Cc3c[nH]cn3)NC1=O)C(=O)N[C@@H](C)C(=O)N[C@@H](Cc1c[nH]cn1)C(=O)N[C@H](Cc1ccccc1)C(=O)N(C)[C@@H](CCCNC(=N)N)C(=O)N[C@@H](Cc1c[nH]c3ccccc13)C(=O)N2 [Chem. 37, c[c[Cys-Ala-His-D-Phe-N-MeArg-Trp- Cys]-Ala-His-D-Phe-N-MeArg-Trp]] | – | 8 | –
C[C@@H]1NC(=O)[C@@H]2CSSC[C@H](NC(=O)[C@H](Cc3c[nH]c4ccccc34)NC(=O)[C@H](CCN)NC(=O)[C@@H](Cc3ccccc3)NC(=O)[C@H](Cc3c[nH]cn3)NC1=O)C(=O)N[C@@H](C)C(=O)N[C@@H](Cc1c[nH]cn1)C(=O)N[C@H](Cc1ccccc1)C(=O)N[C@@H](CCN)C(=O)N[C@@H](Cc1c[nH]c3ccccc13)C(=O)N2 [Chem. 17, c[c[Cys-Ala-His-D-Phe-Dab-Trp-Cys]- Ala-His-D-Phe-Dab-Trp]] | – | 288 | –
C[C@@H]1NC(=O)[C@@H]2CSSC[C@H](NC(=O)[C@H](CCCNC(=N)N)NC(=O)[C@H](CCCN)NC(=O)[C@H](CCC(=O)O)NC(=O)[C@H](CCCN)NC1=O)C(=O)N1CSC[C@H]1C(=O)N[C@@H](Cc1c[nH]cn1)C(=O)N[C@H](Cc1ccccc1)C(=O)N[C@@H](Cc1c[nH]cn1)C(=O)N[C@@H](Cc1c[nH]c3ccccc13)C(=O)N2 [Chem. 119, c[c[Cys-THAZ-His-D-Phe-His-Trp- Cys]-Ala-Orn-Glu-Orn-Arg]] (cyclo(A[Orn]E[Orn]RC[Thz]H[dF]HWC); disulfide 6-12) | – | 1660 | 0.06
C[C@@H]1NC(=O)[C@@H]2CSSC[C@H](NC(=O)[C@H](CCCNC(=N)N)NC(=O)[C@H](Cc3c[nH]c4ccccc34)NC(=O)[C@H](CCCNC(=N)N)NC(=O)[C@@H](Cc3ccccc3)NC(=O)[C@H](Cc3c[nH]cn3)NC1=O)C(=O)N[C@@H](C)C(=O)N[C@@H](Cc1c[nH]cn1)C(=O)N[C@H](Cc1ccccc1)C(=O)N[C@@H](CCCNC(=N)N)C(=O)N[C@@H](Cc1c[nH]c3ccccc13)C(=O)N[C@@H](CCCNC(=N)N)C(=O)N2 [Chem. 69, c[c[Cys-Ala-His-D-Phe-Arg-Trp-Arg- Cys]-Ala-His-D-Phe-Arg-Trp-Arg]] (cyclo(AH[dF]RWRCAH[dF]RWRC); disulfide 7-14) | – | 5 | –
C[C@@H]1NC(=O)[C@@H]2CSSC[C@H](NC(=O)[C@H](CCCNC(=N)N)NC(=O)[C@H](CCCNC(=N)N)NC(=O)[C@H](CCC(=O)O)NC(=O)[C@H](CCCNC(=N)N)NC1=O)C(=O)N1CSC[C@H]1C(=O)N[C@@H](Cc1c[nH]cn1)C(=O)N[C@H](Cc1ccccc1)C(=O)N[C@@H](Cc1c[nH]cn1)C(=O)N[C@@H](Cc1c[nH]c3ccccc13)C(=O)N2 [Chem. 113, c[c[Cys-THAZ-His-D-Phe-His-Trp- Cys]-Ala-Arg-Glu-Arg-Arg]] (cyclo(ARERRC[Thz]H[dF]HWC); disulfide 6-12) | – | 2112 | 0.02
CN1CC(=O)N[C@@H](Cc2c[nH]cn2)C(=O)N[C@H](Cc2ccccc2)C(=O)N[C@@H](CCCNC(=N)N)C(=O)N[C@@H](Cc2c[nH]c3ccccc23)C(=O)N[C@H]2CSSC[C@H](NC(=O)[C@H](Cc3c[nH]c4ccccc34)NC(=O)[C@H](CCCNC(=N)N)NC(=O)[C@@H](Cc3ccccc3)NC(=O)[C@H](Cc3c[nH]cn3)NC(=O)CN(C)C2=O)C1=O [Chem. 31, c[c[Cys-Sar-His-D-Phe-Arg-Trp-Cys]- Sar-His-D-Phe-Arg-Trp]] (cyclo(C[Sar]H[dF]RWC[Sar]H[dF]RW); disulfide 1-7) | 0.29 | 27 | –
C[C@@H]1NC(=O)[C@@H]2CSSC[C@H](NC(=O)[C@H](Cc3c[nH]c4ccccc34)NC(=O)[C@H](Cc3c[nH]cn3)NC(=O)[C@@H](Cc3ccccc3)NC(=O)[C@H](Cc3c[nH]cn3)NC1=O)C(=O)N[C@@H](C)C(=O)N[C@@H](Cc1c[nH]cn1)C(=O)N[C@H](Cc1ccccc1)C(=O)N[C@@H](Cc1c[nH]cn1)C(=O)N[C@@H](Cc1c[nH]c3ccccc13)C(=O)N2 [Chem. 24, c[c[Cys-Ala-His-D-Phe-His-Trp-Cys]- Ala-His-D-Phe-His-Trp]] (cyclo(AH[dF]HWCAH[dF]HWC); disulfide 6-12) | 0.49 | 364 | –
CC(=O)N[C@@H](Cc1c[nH]cn1)C(=O)N[C@H](Cc1ccccc1)C(=O)N[C@@H](CCCNC(=N)N)C(=O)N[C@@H](Cc1c[nH]c2ccccc12)C(=O)N[C@@H](C)C(=O)N[C@@H]1CCSSCCCNC(=O)[C@H](C)NC(=O)[C@H](Cc2c[nH]c3ccccc23)NC(=O)[C@H](CCCNC(=N)N)NC(=O)[C@@H](Cc2ccccc2)NC(=O)[C@H](Cc2c[nH]cn2)NC1=O [Chem. 5, c[c[Cys-His-D-Phe-Arg-Trp-Ala-Cys]- His-D-Phe-Arg-Trp-Ala]] (Ac-H[dF]RWA[d(hCys)]H[dF]RWA; linker 6-C via X1) | 0.21 | 31 | –
N=C(N)NCCC[C@@H]1NC(=O)[C@H](CCCCN)NC(=O)[C@@H]2CSSC[C@H](NC1=O)C(=O)N1CSC[C@H]1C(=O)N[C@@H](Cc1c[nH]cn1)C(=O)N[C@H](Cc1ccccc1)C(=O)N[C@@H](Cc1c[nH]cn1)C(=O)N[C@@H](Cc1c[nH]c3ccccc13)C(=O)N2 [Chem. 118, c[c[Cys-THAZ-His-D-Phe-His-Trp- Cys]-Lys-Arg]] (cyclo(CKRC[Thz]H[dF]HW); disulfide 1-4) | – | 1240 | –
CC1(C)NC(=O)[C@@H]2CSSC[C@H](NC(=O)[C@H](Cc3c[nH]c4ccccc34)NC(=O)[C@H](CCCNC(=N)N)NC(=O)[C@@H](Cc3ccccc3)NC(=O)[C@@H]3CCCN3C1=O)C(=O)NC(C)(C)C(=O)N1CCC[C@H]1C(=O)N[C@H](Cc1ccccc1)C(=O)N[C@@H](CCCNC(=N)N)C(=O)N[C@@H](Cc1c[nH]c3ccccc13)C(=O)N2 [Chem. 39, c[c[Cys-Aib-Pro-D-Phe-Arg-Trp-Cys]- Aib-Pro-D-Phe-Arg-Trp]] (cyclo([Aib]P[dF]RWC[Aib]P[dF]RWC); disulfide 6-12) | – | 37 | –
CC1(C)NC(=O)[C@@H]2CSSC[C@H](NC(=O)[C@H](Cc3c[nH]c4ccccc34)NC(=O)[C@H](CCCNC(=N)N)NC(=O)[C@@H](Cc3ccccc3)NC(=O)[C@H](Cc3c[nH]cn3)NC1=O)C(=O)NC(C)(C)C(=O)N[C@@H](Cc1c[nH]cn1)C(=O)N[C@H](Cc1ccccc1)C(=O)N[C@@H](CCCNC(=N)N)C(=O)N[C@@H](Cc1c[nH]c3ccccc13)C(=O)N2 [Chem. 9, c[c[Cys-Aib-His-D-Phe-Arg-Trp-Cys]- Aib-His-D-Phe-Arg-Trp]] (cyclo([Aib]H[dF]RWC[Aib]H[dF]RWC); disulfide 6-12) | – | 201 | –

— US20200223889A1, “Bicyclic Compounds Capable of Binding to Melanocortin 4 Receptor” (Novo Nordisk A/S, priority 2017, published 2020)
